Common to all, as to format: biochemical
The target of one experiment is T1, human DYRK1A (Homo sapiens, UniProt Q13627).
T1 construct: Recombinant full-length DYRK1A (expressed in E. Coli cells with an N-terminal GST tag); GST (N); purchased SignalChem D09-10G; host or cells: E. coli
As to the kind of experiment: DYRK1A enzyme assay (ADP-Glo). The note with it: ADP-Glo, ATP 60 μM; read-out: DYRK1A IC50. As to the method:
The ability of compounds to inhibit human DYRK1A kinase activities was determined using a commercially available ADP-Glo™ Kinase Assay kit (Promega, Cat #V9102) according to the manufacturer's protocol.
Recombinant full-length DYRK1A (expressed in E. Coli cells with an N-terminal GST tag) was purchased from SignalChem (Cat #D09-10G). The DYRK substrate peptide (DYRKtide, sequence: […]) was purchased from SignalChem (Cat #D96-58). This assay, run in a 384-well plate format, is a generic method for measuring kinase activities using an ADP-Glo Kinase Assay Kit. The basic assay procedure involves two steps: (1) Enzymatic step: inhibitors are incubated with the kinase and then ATP (included in the ADP-Glo Kinase Assay Kit) and the DYRKtide are added to start the enzymatic reaction; (2) Detection step: after the kinase reaction, first ADP-Glo™ Reagent is added to terminate the kinase reaction and deplete the remaining ATP. Second, the Kinase Detection Reagent is added to simultaneously convert ADP to ATP and allow the newly synthesized ATP to be measured using a luciferase/luciferin reaction. The light generated is measured using a luminometer.
Briefly, DYRK1A (3 nM) in the enzymatic buffer solutions (40 mM Tris, pH 7.5, 20 mM MgCl2, 0.1 mg/ml BSA, 50 μM DTT) were mixed with various concentrations of inhibitors (dissolved in 100% DMSO). These solutions were incubated for 30 minutes at 25° C., and subsequently a mixture of substrate peptide and ATP was added with the final peptide and ATP concentrations at 20 μM and 60 μM, respectively. The final reaction mixture of enzyme-substrate-ATP-compound was incubated for 60 minutes at 25° C.
Afterwards ADP-Glo™ Reagent was added and the mixture was incubated at 25° C. for 60 minutes. Then Kinase Detection Reagent was added and the final mixture was incubated at 25° C. for 60 minutes. The luminescence signal of the final solution was measured on an Envision instrument (PerkinElmer). The percent (%) inhibition at each concentration of a compound is calculated relative to the luminescence signal in the Max and Min control wells contained within each assay plate. […] The concentrations and percent inhibition values for a test compound are plotted and the concentration of the compound required to achieve 50% inhibition (IC50) is determined with a four-parameter logistic dose response equation.
In general terms: In ADP-Glo the light output rises with the ADP produced.

The next experiment has as its target T2, human HIPK2 (Homo sapiens, UniProt Q9H2X6).
T2 construct: Recombinant human HIPK2 (1-640); GST (N); purchased SignalChem H04-11BG; host or cells: Sf9 insect cells
As to the kind of experiment: HIPK2 enzyme assay (ADP-Glo). The note with it: ADP-Glo, ATP 5 μM; read-out: HIPK2 IC50. As to the method:
The ability of compounds to inhibit human HIPK2 kinase activities was determined using a commercially available ADP-Glo™ Kinase Assay kit (Promega, Cat #V9102) according to the manufacturer's protocol.
(§1) Recombinant human HIPK2 (1-640) (expressed in Sf9 insect cells with an N-terminal GST tag) was purchased from SignalChem (Cat #H04-11BG). Recombinant full length human MBP (expressed in E. Coli cells with an N-terminal GST tag) was purchased from SignalChem (Cat #M42-54G). This assay, run in a 384-well plate format, is a generic method for measuring kinase activities using an ADP-Glo Kinase Assay Kit. The basic assay procedure involves two steps: (1) Enzymatic step: inhibitors are incubated with the kinase and then ATP (included in the ADP-Glo Kinase Assay Kit) and the MBP protein are added to start the enzymatic reaction; (2) Detection step: after the kinase reaction, first ADP-Glo™ Reagent is added to terminate the kinase reaction and deplete the remaining ATP. Second, the Kinase Detection Reagent is added to simultaneously convert ADP to ATP and allow the newly synthesized ATP to be measured using a luciferase/luciferin reaction. The light generated is measured using a luminometer.
Briefly, HIPK2 (1 nM) in the enzymatic buffer solutions (40 mM Tris, pH 7.5, 20 mM MgCl2, 0.1 mg/ml BSA, 50 μM DTT) were mixed with various concentrations of inhibitors (dissolved in 100% DMSO). These solutions were incubated for 30 minutes at 25° C., and subsequently a mixture of substrate peptide and ATP was added with the final peptide and ATP concentrations at 0.05 mg/ml and 5 μM, respectively. The final reaction mixture of enzyme-substrate-ATP-compound was incubated for 90 minutes at 25° C.
(§2) Afterwards ADP-Glo™ Reagent was added and the mixture was incubated at 25° C. for 60 minutes. Then Kinase Detection Reagent was added, and the final mixture was incubated at 25° C. for 60 minutes. The luminescence signal of the final solution was measured on an Envision instrument (PerkinElmer). The percent (%) inhibition at each concentration of a compound is calculated relative to the luminescence signal in the Max and Min control wells contained within each assay plate. […] The concentrations and percent inhibition values for a test compound are plotted and the concentration of the compound required to achieve 50% inhibition (IC50) is determined with a four-parameter logistic dose response equation.

A further experiment concerns the target T3, human HIPK1 (Homo sapiens, UniProt Q86Z02).
T3 construct: Recombinant human HIPK1 (156-555); GST (N); purchased SignalChem H03-11G; host or cells: Sf9 insect cells
The experiment is described as follows: HIPK1 enzyme assay (ADP-Glo). Particulars: ADP-Glo, ATP 5 μM; read-out: HIPK1 IC50. As to the method:
The ability of compounds to inhibit human HIPK1 kinase activities was determined using a commercially available ADP-Glo™ Kinase Assay kit (Promega, Cat #V9102) according to the manufacturer's protocol.
as §1, with “HIPK1 (156-555)” for “HIPK2 (1-640)”, “#H03-11G).” for “#H04-11BG).”
Briefly, HIPK1 (4 nM) in the enzymatic buffer solutions (40 mM Tris, pH 7.5, 20 mM MgCl2, 0.1 mg/ml BSA, 50 μM DTT) were mixed with various concentrations of inhibitors (dissolved in 100% DMSO). These solutions were incubated for 30 minutes at 25° C., and subsequently a mixture of substrate peptide and ATP was added with the final peptide and ATP concentrations at 0.05 mg/ml and 5 μM, respectively. The final reaction mixture of enzyme-substrate-ATP-compound was incubated for 90 minutes at 25° C.
as §2

T3 sequence (Q86Z02 156-555): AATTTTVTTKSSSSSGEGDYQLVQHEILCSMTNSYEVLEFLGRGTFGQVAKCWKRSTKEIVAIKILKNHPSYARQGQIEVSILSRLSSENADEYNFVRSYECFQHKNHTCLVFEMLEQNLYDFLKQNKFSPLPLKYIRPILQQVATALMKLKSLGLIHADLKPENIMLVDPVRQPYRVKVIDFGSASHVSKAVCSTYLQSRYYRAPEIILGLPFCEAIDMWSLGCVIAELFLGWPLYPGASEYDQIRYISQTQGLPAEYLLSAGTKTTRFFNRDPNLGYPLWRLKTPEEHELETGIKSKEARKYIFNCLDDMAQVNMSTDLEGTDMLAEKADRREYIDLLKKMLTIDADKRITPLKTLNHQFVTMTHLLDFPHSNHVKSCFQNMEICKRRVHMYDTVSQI
T2 sequence (Q9H2X6 1-640): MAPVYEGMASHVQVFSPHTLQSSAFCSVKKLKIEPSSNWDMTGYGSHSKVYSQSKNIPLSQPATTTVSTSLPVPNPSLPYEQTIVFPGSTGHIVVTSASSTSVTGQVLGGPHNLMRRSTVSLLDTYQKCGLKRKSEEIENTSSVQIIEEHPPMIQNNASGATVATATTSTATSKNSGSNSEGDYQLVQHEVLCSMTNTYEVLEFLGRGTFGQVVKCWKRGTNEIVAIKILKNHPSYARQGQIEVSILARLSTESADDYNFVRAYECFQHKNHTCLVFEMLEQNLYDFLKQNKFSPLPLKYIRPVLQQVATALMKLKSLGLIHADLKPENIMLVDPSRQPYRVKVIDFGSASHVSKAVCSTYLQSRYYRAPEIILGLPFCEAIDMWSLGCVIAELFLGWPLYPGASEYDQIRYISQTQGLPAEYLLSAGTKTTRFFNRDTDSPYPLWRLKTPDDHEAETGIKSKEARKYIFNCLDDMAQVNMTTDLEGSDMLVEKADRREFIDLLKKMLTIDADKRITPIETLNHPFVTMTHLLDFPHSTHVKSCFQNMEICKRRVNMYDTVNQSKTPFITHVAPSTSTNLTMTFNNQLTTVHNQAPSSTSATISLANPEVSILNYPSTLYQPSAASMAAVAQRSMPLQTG

What is called IC50 is the concentration that inhibits the measured activity by half. As to `O=C1NC(Nc2ccccc2)=N/C1=C\c1ccc2[nH]cnc2c1` [Example 26, (Z)-5-((1H-benzo[d]imidazol-5-yl)methylene)-2-(phenylamino)-3,5-dihydro-4H-imidazol-4-one], the IC50 was below 0.1 µM on human DYRK1A, 0.1 to 1 µM on human HIPK2 and 0.1 to 1 µM at human HIPK1.
With `CN(C1=N/C(=C\c2ccc3c(c2)OCO3)C(=O)N1)c1ccc(N)cc1` [Example 37, (Z)-2-((4-aminophenyl)(methyl)amino)-5-(benzo[d][1,3]dioxol-5-ylmethylene)-3,5-dihydro-4H-imidazol-4-one], the IC50 is 1 to 10 µM on human DYRK1A, above 10 µM on human HIPK2 and above 10 µM at human HIPK1.
For `O=C1NC(Nc2ccc3ncsc3c2)=N/C1=C\c1ccc2c(c1)OCCO2` [Example 74, (Z)-2-(benzo[d]thiazol-6-ylamino)-5-((2,3-dihydrobenzo[b][1,4]dioxin-6-yl)methylene)-3,5-dihydro-4H-imidazol-4-one], the IC50 on human DYRK1A, at human HIPK2 and at human HIPK1 was above 10 µM in each case.
Turning to `CC(C)NC1=N/C(=C\c2ccc3scnc3c2)C(=O)N1` [Example 49, (Z)-5-(benzo[d]thiazol-5-ylmethylene)-2-(isopropylamino)-3,5-dihydro-4H-imidazol-4-one], the IC50 on human DYRK1A, on human HIPK2 and at human HIPK1 was above 10 µM in each case.
Take `O=C1NC(Nc2ccccc2)=N/C1=C\c1ccc2occc2c1` [Example 52, (Z)-5-(benzofuran-5-ylmethylene)-2-(phenylamino)-3,5-dihydro-4H-imidazol-4-one]: the IC50 on human DYRK1A, at human HIPK2 and at human HIPK1 was above 10 µM in each case.
For the molecule `O=C1NC(Nc2ccccc2)=N/C1=C\c1ccc2nccnc2c1` [Example 16, (Z)-2-(phenylamino)-5-(quinoxalin-6-ylmethylene)-3,5-dihydro-4H-imidazol-4-one], the figures for the IC50 on human DYRK1A, on human HIPK2 and at human HIPK1 were below 0.1 µM, 1 to 10 µM and 1 to 10 µM, respectively.
Turning to `O=C1NC(N(CC2CC2)c2ccccc2)=N/C1=C\c1ccc2c(c1)OCCO2` [Example 39, (Z)-2-((cyclopropylmethyl)(phenyl)amino)-5-((2,3-dihydrobenzo[b][1,4]dioxin-6-yl)methylene)-3,5-dihydro-4H-imidazol-4-one], the IC50 on human DYRK1A is 1 to 10 µM; on human HIPK2 it was above 10 µM; on human HIPK1 it was above 10 µM.
`O=C1NC(N(Cc2ccccc2)c2ccccc2)=N/C1=C\c1ccc2[nH]cnc2c1` [Example 35, (Z)-5-((1H-benzo[d]imidazol-5-yl)methylene)-2-(benzyl(phenyl)amino)-3,5-dihydro-4H-imidazol-4-one]: the IC50 on human DYRK1A was 1 to 10 µM; on human HIPK2 it was above 10 µM; at human HIPK1, above 10 µM.
As for `COc1ccc(N(C)C2=N/C(=C\c3ccc4c(c3)OCO4)C(=O)N2)cc1` [Example 12, (Z)-5-(benzo[d][1,3]dioxol-5-ylmethylene)-2-((4-methoxyphenyl)(methyl)amino)-3,5-dihydro-4H-imidazol-4-one], the IC50 at human DYRK1A is 0.1 to 1 µM; at human HIPK2, above 10 µM; at human HIPK1, above 10 µM.
Regarding `O=C1NC(Nc2ccccc2)=N/C1=C\c1ccc2nn[nH]c2c1` [Example 56, (Z)-5-((1H-benzo[d][1,2,3]triazol-6-yl)methylene)-2-(phenylamino)-3,5-dihydro-4H-imidazol-4-one], the figures for the IC50 at human DYRK1A, on human HIPK2 and at human HIPK1 were below 0.1 µM, 1 to 10 µM and above 10 µM, respectively.
Take `O=C1NC(Nc2ccccc2)=N/C1=C\c1ccc2sccc2c1` [Example 72, (Z)-5-(benzo[b]thiophen-5-ylmethylene)-2-(phenylamino)-3,5-dihydro-4H-imidazol-4-one]: the IC50 on human DYRK1A, at human HIPK2 and at human HIPK1 was above 10 µM each time.
In the case of `CN(CC1CC1)C1=N/C(=C\c2ccc3c(c2)OCCO3)C(=O)N1` [Example 19, (Z)-2-((cyclopropylmethyl)(methyl)amino)-5-((2,3-dihydrobenzo[b][1,4]dioxin-6-yl)methylene)-3,5-di hydro-4H-imidazol-4-one], the IC50 was 0.1 to 1 µM on human DYRK1A, above 10 µM on human HIPK2 and above 10 µM on human HIPK1.
Consider `O=C1NC(Nc2ccc3[nH]ccc3c2)=N/C1=C\c1ccc2ncsc2c1` [Example 69, (Z)-2-((1H-indol-5-yl)amino)-5-(benzo[d]thiazol-6-ylmethylene)-3,5-dihydro-4H-imidazol-4-one], for which the IC50 on human DYRK1A was below 0.1 µM; on human HIPK2, below 0.1 µM; at human HIPK1, 0.1 to 1 µM.
Consider `O=C1NC(Nc2ccc3ncsc3c2)=N/C1=C\c1ccc2[nH]ccc2c1` [Example 58, (Z)-5-((1H-indol-5-yl)methylene)-2-(benzo[d]thiazol-6-ylamino)-3,5-dihydro-4H-imidazol-4-one], for which the IC50 at human DYRK1A, at human HIPK2 and on human HIPK1 was above 10 µM throughout.
In the case of `O=C1NC(Nc2ccccc2)=N/C1=C\c1ccc(=O)[nH]c1` [Example 9, (Z)-5-((5-oxo-2-(phenylamino)-1,5-dihydro-4H-imidazol-4-ylidene)methyl)pyridin-2(1H)-one], the IC50 at human DYRK1A was 0.1 to 1 µM; at human HIPK2, above 10 µM; at human HIPK1, above 10 µM.

The values are drawn from patent US12643887B2, “Heterocyclic derivatives with cardiomyocyte proliferation activity for treatment of heart diseases” (Tongji University, priority 2019, dated 2026).
